Laboratory results: US9057727B2, “Screening methods using G-protein coupled receptors and related compositions” (The General Hospital Corporation, priority 2007, dated 2015)
Like-named read-outs stand apart in the source and are kept apart here. Peptide text beside a SMILES is read from it.

Experiments:
SaOS cells = assay: cAMP production in SaOS cells, dose-response; assay type: cell-based
[1] = target: T1, human PTHR, G protein-uncoupled conformation (R^0) (Homo sapiens, UniProt Q03431); assay: Competition binding to R0 conformation of hPTHR (COS-7 membranes, GTPγS, 125I-PTH(1-34) tracer); conditions: for IC50: read-out: R^0 binding affinity hPTHR IC50; for screen human PIR R0 (% parent): parent PTHrP(1-28)NH
T1 construct: expressed in transfected cells; host or cells: COS-7, transient (Fugene-6)
T1 sequence (Q03431 27-593): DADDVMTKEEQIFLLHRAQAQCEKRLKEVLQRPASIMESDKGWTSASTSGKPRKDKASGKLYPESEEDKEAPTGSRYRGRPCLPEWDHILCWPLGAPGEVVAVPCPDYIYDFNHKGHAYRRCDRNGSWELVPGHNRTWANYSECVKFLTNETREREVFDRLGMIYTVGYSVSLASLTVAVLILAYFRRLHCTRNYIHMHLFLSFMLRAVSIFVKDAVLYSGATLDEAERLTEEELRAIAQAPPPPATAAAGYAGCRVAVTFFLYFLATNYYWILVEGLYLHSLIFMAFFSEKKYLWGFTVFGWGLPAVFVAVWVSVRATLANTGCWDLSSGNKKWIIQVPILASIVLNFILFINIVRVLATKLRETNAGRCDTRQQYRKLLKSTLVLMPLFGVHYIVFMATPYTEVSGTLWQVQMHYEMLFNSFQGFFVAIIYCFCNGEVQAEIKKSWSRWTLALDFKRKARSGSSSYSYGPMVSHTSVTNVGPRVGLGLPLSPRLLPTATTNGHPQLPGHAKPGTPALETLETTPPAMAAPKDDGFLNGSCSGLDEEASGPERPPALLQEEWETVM
Procedure, shortened: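 Membranes from hPTHR-transfected COS-7 cells (20-100 μg/mL protein) incubated 90 min with radioligand (~150,000 cpm/ml) and unlabeled ligands, then filtered. Specific binding expressed as % of binding without competitor.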

MC3T3-E1 cells = assay: cAMP in MC3T3-E1 cells, dose-response; assay type: cell-based
Method: In the 1-30 scaffold, Gly, Ser, Leu, Asn, Gln, Trp, Glu, and Lys were substituted at position 29; Gly, Ser, Leu, Asn, Asp, Trp, and Lys were substituted at position 30; and Ser, Leu, Asn, Val, Trp, Glu, and Lys were substituted at position 31. […] These peptides were tested for cAMP activity in MC3T3-E1 cells.

[2] = test system: LLCPK1-B64 cells or SaOS-2 cells; assay: cAMP screen of substituted PTHrP(1-28) analogs (% parent); assay type: cell-based; conditions: parent PTHrP(1-28)NH
Procedure, shortened: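 LLCPK1-B64 or SaOS-2 cells exposed to peptide analogs at 3×10^−9M with IBMX for 30 minutes at room temperature, then cAMP measured. Each analog's response expressed as percentage of that for parent PTHrP(1-28).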

[3] = target: T2, human PTHR, G protein-coupled conformation (RG) (Homo sapiens, UniProt Q03431); assay: Competition binding to RG conformation of hPTHR (COS-7 membranes, GαsND, 125I-[Aib1,3,M]PTH(1-15) tracer); conditions: for screen human PIR RG (% parent): parent PTHrP(1-28)NH; for IC50: Table 2, read-out: RG binding affinity hPTHR IC50
T2 construct: expressed in transfected cells; host or cells: COS-7, transient (Fugene-6); membranes
T2 sequence (Q03431 27-593): T1 sequence (Q03431 27-593)

[4] = Table 2, read-out: SaOS camp EC50
[5] = Table 3, read-out: dose-response cAMP in SaOS (EC50)
[6] = Table 2, read-out: MC3T3-E1 cAMP EC50
[7] = Table 3, read-out: dose-response cAMP in MC3T3-E1 (EC50)

Row | SMILES | EC50 (SaOS cells; [4]) [nM] | EC50 (SaOS cells; [5]) [nM] | IC50 ([1]; Table 2) [nM] | screen human PIR R0 (% parent) [1] [% parent] | EC50 (MC3T3-E1 cells; [6]) [nM] | EC50 (MC3T3-E1 cells; [7]) [nM] | screen cAMP (% parent) [2] [% parent] | screen human PIR RG (% parent) [3] [% parent] | R0/RG selectivity ([1]; Table 2, hPTHR) | IC50 [3] [nM]
1 | CC[C@H](C)[C@H](NC(=O)[C@H](CC(C)C)NC(=O)[C@H](CCCCN)NC(=O)[C@H](Cc1c[nH]cn1)NC(=O)[C@H](CC(C)C)NC(=O)[C@H](Cc1ccccc1)NC(=O)[C@H](C)NC(=O)[C@H](CCCNC(=N)N)NC(=O)[C@H](CCCNC(=N)N)NC(=O)[C@H](CCCNC(=N)N)NC(=O)[C@H](CCC(=O)O)NC(=O)[C@H](CC(=O)O)NC(=O)[C@H](CCC(N)=O)NC(=O)[C@@H](NC(=O)[C@H](CO)NC(=O)[C@H](CCCCN)NC(=O)CNC(=O)[C@H](CCCCN)NC(=O)[C@H](CC(=O)O)NC(=O)[C@H](Cc1c[nH]cn1)NC(=O)[C@H](CC(C)C)NC(=O)[C@H](CC(C)C)NC(=O)[C@H](CCC(N)=O)NC(=O)[C@H](Cc1c[nH]cn1)NC(=O)[C@H](CCC(=O)O)NC(=O)[C@H](CO)NC(=O)[C@@H](NC(=O)[C@H](C)N)C(C)C)[C@@H](C)CC)C(N)=O [E18, A22, K26-PTHrP(1-28)NH, E18,A22,K26-PTHrP(1-28)] (H-AVSEHQLLHDKGKSIQDERRRAFLHKLI-NH2; N-terminus assumed) | 0.241 | 0.241 | 9240 | 68.8 | 0.251 | 0.251 | 301 | 145 | – | –
2 | CC[C@H](C)[C@H](NC(=O)[C@H](CC(C)C)NC(=O)[C@H](CCCCN)NC(=O)[C@H](Cc1c[nH]cn1)NC(=O)[C@H](CC(C)C)NC(=O)[C@H](Cc1ccccc1)NC(=O)[C@H](C)NC(=O)[C@H](CCCNC(=N)N)NC(=O)[C@H](CCCNC(=N)N)NC(=O)[C@H](CCCNC(=N)N)NC(=O)[C@H](C)NC(=O)[C@H](CC(=O)O)NC(=O)[C@H](CCC(N)=O)NC(=O)[C@@H](NC(=O)[C@H](CO)NC(=O)[C@H](CCCCN)NC(=O)CNC(=O)[C@H](CCCCN)NC(=O)[C@H](CC(=O)O)NC(=O)[C@H](Cc1c[nH]cn1)NC(=O)[C@H](CC(C)C)NC(=O)[C@H](CC(C)C)NC(=O)[C@H](CCC(N)=O)NC(=O)[C@H](Cc1c[nH]cn1)NC(=O)[C@H](CCC(=O)O)NC(=O)[C@H](CO)NC(=O)[C@@H](NC(=O)[C@H](C)N)C(C)C)[C@@H](C)CC)C(N)=O [A18, 22, K26-PTHrP(1-28)NH, A18,22,K26-PTHrP(1-28)] (H-AVSEHQLLHDKGKSIQDARRRAFLHKLI-NH2; N-terminus assumed) | 0.024 | 0.024 | 1810 | 178 | 0.091 | 0.091 | 405 | 193 | 18079 | 0.1
3 | CC[C@H](C)[C@H](NC(=O)[C@H](CC(C)C)NC(=O)[C@H](CCCCN)NC(=O)[C@H](CC(C)C)NC(=O)[C@H](CC(C)C)NC(=O)[C@H](Cc1ccccc1)NC(=O)[C@H](C)NC(=O)[C@H](CCCNC(=N)N)NC(=O)[C@H](CCCNC(=N)N)NC(=O)[C@H](CCCNC(=N)N)NC(=O)[C@H](C)NC(=O)[C@H](CC(=O)O)NC(=O)[C@H](CCC(N)=O)NC(=O)[C@@H](NC(=O)[C@H](CO)NC(=O)[C@H](CCCCN)NC(=O)CNC(=O)[C@H](CCCCN)NC(=O)[C@H](CC(=O)O)NC(=O)[C@H](Cc1c[nH]cn1)NC(=O)[C@H](CC(C)C)NC(=O)[C@H](CC(C)C)NC(=O)[C@H](CCC(N)=O)NC(=O)[C@H](Cc1c[nH]cn1)NC(=O)[C@H](CCC(=O)O)NC(=O)[C@H](CO)NC(=O)[C@@H](NC(=O)[C@H](C)N)C(C)C)[C@@H](C)CC)C(=O)N[C@@H](C)C(=O)N[C@@H](CCC(=O)O)C(N)=O [A18, 22, L25, K26-PTHrP(1-30)NH, A18,22,L25,K26-PTHrP(1-30)] | 0.008 | – | 144 | – | 0.067 | 0.067 | – | – | – | 0.05
